Experiments:
Format in all cases: biochemical
[1] = target: human JAK2 catalytic kinase (JH1) domain (Homo sapiens (Human), UniProt O60674); assay: ADP-Glo Kinase Assay, recombinant JAK2 catalytic kinase (JH1) domain; details: recombinant JH1 domain 0.2 nM, 15 μM ATP, JAK3-974 peptide, mean, read-out: JAK2 biochem IC50 (nM) Mean
Method in brief: (§1)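 Luminescent ADP read-out after residual ATP depletion, 100 min reaction. Kinase domain concentrations were 4 nM (JAK1), 0.2 nM (JAK2), 0.3 nM (JAK3) and 2 nM (TYK2), each with 50 μM peptide. IC50 values came from 4-parameter logistic fits over 11 points, 3-fold steps, top 10 μM or 1 μM.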

[2] = target: human JAK3 catalytic kinase (JH1) domain (Homo sapiens (Human), UniProt P52333); assay: ADP-Glo Kinase Assay, recombinant JAK3 catalytic kinase (JH1) domain; details: recombinant JH1 domain 0.3 nM, 4 μM ATP, JAK3-974 peptide, mean, read-out: JAK3 biochem IC50 (nM) Mean
Sequence of human JAK3 catalytic kinase (JH1) domain (P52333 822-1111): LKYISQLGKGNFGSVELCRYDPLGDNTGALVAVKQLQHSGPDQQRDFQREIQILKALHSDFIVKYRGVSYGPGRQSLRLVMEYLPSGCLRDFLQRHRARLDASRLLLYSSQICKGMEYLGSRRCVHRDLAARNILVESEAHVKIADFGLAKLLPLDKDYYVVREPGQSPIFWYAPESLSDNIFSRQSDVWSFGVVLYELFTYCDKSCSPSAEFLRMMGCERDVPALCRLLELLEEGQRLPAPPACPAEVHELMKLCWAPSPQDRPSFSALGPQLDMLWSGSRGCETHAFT
Method in brief: as §1

[3] = target: human TYK2 catalytic kinase (JH1) domain (Homo sapiens (Human), UniProt P29597); assay: ADP-Glo Kinase Assay, recombinant TYK2 catalytic kinase (JH1) domain; details: recombinant JH1 domain 2 nM, 10 μM ATP, JAK3-974 peptide, mean, read-out: TYK2 biochem IC50 (nM) Mean
Sequence of human TYK2 catalytic kinase (JH1) domain (P29597 897-1176): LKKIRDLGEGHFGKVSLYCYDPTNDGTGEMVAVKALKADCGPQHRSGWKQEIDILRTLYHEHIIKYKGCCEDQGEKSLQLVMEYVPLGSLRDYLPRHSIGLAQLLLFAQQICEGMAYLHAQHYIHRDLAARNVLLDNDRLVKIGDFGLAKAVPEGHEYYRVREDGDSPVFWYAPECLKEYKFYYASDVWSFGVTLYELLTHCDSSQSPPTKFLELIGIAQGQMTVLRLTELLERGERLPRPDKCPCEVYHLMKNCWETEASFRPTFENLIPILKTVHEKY
Method in brief: as §1

[4] = target: human JAK1 catalytic kinase (JH1) domain (Homo sapiens (Human), UniProt P23458); assay: ADP-Glo Kinase Assay, recombinant JAK1 catalytic kinase (JH1) domain; details: recombinant JH1 domain 4 nM, 35 μM ATP, JAK3-342 peptide, mean, read-out: JAK1 biochem IC50 (nM) Mean
Sequence of human JAK1 catalytic kinase (JH1) domain (P23458 875-1153): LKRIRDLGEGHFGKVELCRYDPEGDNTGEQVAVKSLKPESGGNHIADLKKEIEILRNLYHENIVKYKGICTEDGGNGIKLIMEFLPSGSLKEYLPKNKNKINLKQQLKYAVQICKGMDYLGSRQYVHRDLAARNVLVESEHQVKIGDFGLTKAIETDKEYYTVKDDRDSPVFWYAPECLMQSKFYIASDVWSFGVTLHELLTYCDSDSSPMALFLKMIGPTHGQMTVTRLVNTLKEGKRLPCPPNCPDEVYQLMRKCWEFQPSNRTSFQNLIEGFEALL
Method in brief: as §1

Sequence of human JAK2 catalytic kinase (JH1) domain (O60674 849-1124): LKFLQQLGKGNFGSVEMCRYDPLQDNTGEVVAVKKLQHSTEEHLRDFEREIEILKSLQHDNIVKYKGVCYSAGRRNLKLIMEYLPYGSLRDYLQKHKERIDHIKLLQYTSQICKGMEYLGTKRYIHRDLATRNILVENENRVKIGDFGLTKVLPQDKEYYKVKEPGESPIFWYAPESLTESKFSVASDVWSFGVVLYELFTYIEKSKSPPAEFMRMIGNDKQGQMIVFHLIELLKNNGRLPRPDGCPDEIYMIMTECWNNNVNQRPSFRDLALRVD

Compound | IC50 [1] [nM] | IC50 [2] [nM] | IC50 [3] [nM] | IC50 [4] [nM]
O=C([C@@H]1C[C@H]1F)N1C2CCC1CN(c1ncnn3cc(-c4ccc(=O)n(C(F)F)c4)cc13)C2 [Example 110, 1-(difluoromethyl)-5-(4-(8-((1S,2R)-2-fluorocyclopropane-1-carbonyl)-3,8-diazabicyclo[3.2.1]octan-3-yl)pyrrolo[2,1-f][1,2,4]triazin-6-yl)pyridin-2(1H)-one] | 812 | 3960 | 56.5 | 758
N#Cc1cccc(-c2cc3c(N4CC5CCC(C4)N5C(=O)C4CC4)ncnn3c2)c1 [Example 176] | 10000 | 9890 | 830 | 3560
Cn1cc(-c2cc3c(N4CC5CCC(C4)N5C(=O)C4(F)CC4)ccnc3[nH]2)c(F)n1 [Example 243, (3-(2-(3-fluoro-1-methyl-1H-pyrazol-4-yl)-1H-pyrrolo[2,3-b]pyridin-4-yl)-3,8-diazabicyclo[3.2.1]octan-8-yl)(1-fluorocyclopropyl)methanone] | 26 | 27 | 2.8 | 79
O=C([C@H]1C[C@@H]1CO)N1C2CCC1CN(c1ncnn3cc(-c4cnn(C(F)F)c4)cc13)C2 (racemic) [Example 38, Rac-(3-(6-(1-(difluoromethyl)-1H-pyrazol-4-yl)pyrrolo[2,1-f][1,2,4]triazin-4-yl)-3,8-diazabicyclo[3.2.1]octan-8-yl)((1S,2S)-2-(hydroxymethyl)cyclopropyl)methanone] | 8260 | ≥ 10000 | 326 | 1640
Cn1cc(-c2cc3c(N4CC5CCC(C4)N5S(=O)(=O)C4CC4)ncnn3c2)cn1 [Example 187, 4-(8-(cyclopropylsulfonyl)-3,8-diazabicyclo[3.2.1]octan-3-yl)-6-(1-methyl-1H-pyrazol-4-yl)pyrrolo[2,1-f][1,2,4]triazine] | 5410 | 9430 | 643 | 9660
CC1(C)C(C(=O)N2C3CCC2CN(c2ncnn4cc(-c5cnn(C(F)F)c5)cc24)C3)C1(F)F (stereo not drawn) [Example 13, (2,2-difluoro-3,3-dimethylcyclopropyl)(3-(6-(1-(difluoromethyl)-1H-pyrazol-4-yl)pyrrolo[2,1-f][1,2,4]triazin-4-yl)-3,8-diazabicyclo[3.2.1]octan-8-yl)methanone] | 9150 | 7220 | 688 | 3360
O=C(N1C2CCC1CN(c1ncnn3cc(-c4cnn(C(F)F)c4)cc13)C2)C(F)(F)F [Example 86, 1-(3-(6-(1-(difluoromethyl)-1H-pyrazol-4-yl)pyrrolo[2,1-f][1,2,4]triazin-4-yl)-3,8-diazabicyclo[3.2.1]octan-8-yl)-2,2,2-trifluoroethan-1-one] | 6080 | 5090 | 334 | 1030
N#Cc1ccc(-c2cc3c(N4CC5CCC(C4)N5C(=O)[C@@H]4C[C@H]4F)ccnn3c2)cn1 [Example 103, 5-(4-(8-((1S,2R)-2-fluorocyclopropane-1-carbonyl)-3,8-diazabicyclo[3.2.1]octan-3-yl)pyrrolo[1,2-b]pyridazin-6-yl)picolinonitrile] | 60 | 913 | 5.2 | 77
O=C([C@@H]1C[C@H]1F)N1C2CCC1CN(c1ccnc3[nH]c(-c4ccnnc4)nc13)C2 [Example 207, ((1S,2R)-2-fluorocyclopropyl)(3-(2-(pyridazin-4-yl)-3H-imidazo[4,5-b]pyridin-7-yl)-3,8-diazabicyclo[3.2.1]octan-8-yl)methanone] | 150 | 2680 | 39.6 | 126
Cn1ncc(-c2cc3c(N4CC5CCC(C4)N5C(=O)[C@@H]4C[C@H]4F)ncnn3c2)c1F [Example 97, (3-(6-(5-fluoro-1-methyl-1H-pyrazol-4-yl)pyrrolo[2,1-f][1,2,4]triazin-4-yl)-3,8-diazabicyclo[3.2.1]octan-8-yl)((1S,2R)-2-fluorocyclopropyl)methanone] | 1380 | 4040 | 76.8 | 1320
Cn1cc(-c2cc3c(N4CC5CCC(C4)N5C(=O)[C@@H]4C[C@H]4F)ccnc3[nH]2)c(F)n1 [Example 244, (3-(2-(3-fluoro-1-methyl-1H-pyrazol-4-yl)-1H-pyrrolo[2,3-b]pyridin-4-yl)-3,8-diazabicyclo[3.2.1]octan-8-yl)((1S,2R)-2-fluorocyclopropyl)methanone] | 4 | 73 | 0.2 | 18
Cn1cc(-c2nc3c(N4CC5CCC(C4)N5S(=O)(=O)C4CC4)ccnc3[nH]2)cn1 [Example 195] | 38 | 306 | 20.6 | 194
O=C(C1CC1)N1C2CCC1CN(c1ncnn3cc(-c4cnn(C(F)F)c4)cc13)C2 [Example 144] | 10000 | 10000 | 622 | 9320
CC1C(C(=O)N2C3CCC2CN(c2ncnn4cc(-c5cnn(C(F)F)c5)cc24)C3)C1(F)F (stereo not drawn) [Example 5, (2,2-difluoro-3-methylcyclopropyl)(3-(6-(1-(difluoromethyl)-1H-pyrazol-4-yl)pyrrolo[2,1-f][1,2,4]triazin-4-yl)-3,8-diazabicyclo[3.2.1]octan-8-yl)methanone] | 3050 | 3700 | 93.1 | 707
Cn1cc(-c2cc3c(N4CC5CCC(C4)N5C(=O)[C@@H]4C[C@H]4F)ncnn3c2)cn1 [Example 2, ((1S,2R)-2-fluorocyclopropyl)(3-(6-(1-methyl-1H-pyrazol-4-yl)pyrrolo[2,1-f][1,2,4]triazin-4-yl)-3,8-diazabicyclo[3.2.1]octan-8-yl)methanone] | 292 | 820 | 4.7 | 324
Cn1cc(-c2cc3c(N4CC5CCC(C4)N5C(=O)C4CC4)ncnn3c2)nn1 [Example 186, cyclopropyl(3-(6-(1-methyl-1H-1,2,3-triazol-4-yl)pyrrolo[2,1-f][1,2,4]triazin-4-yl)-3,8-diazabicyclo[3.2.1]octan-8-yl)methanone] | 9850 | ≥ 10000 | 845 | ≥ 10000
Cn1cc(-c2cc3c(N4CC5CCC(C4)N5C(=O)C4COC4)ncnn3c2)cn1 [Example 71, (3-(6-(1-methyl-1H-pyrazol-4-yl)pyrrolo[2,1-f][1,2,4]triazin-4-yl)-3,8-diazabicyclo[3.2.1]octan-8-yl)(oxetan-3-yl)methanone] | 10000 | 10000 | 911 | 5320
O=C([C@@H]1C[C@H]1F)N1C2CCC1CN(c1ccnc3[nH]c(C4CC4)nc13)C2 [Example 208, (3-(2-cyclopropyl-3H-imidazo[4,5-b]pyridin-7-yl)-3,8-diazabicyclo[3.2.1]octan-8-yl)((1S,2R)-2-fluorocyclopropyl)methanone] | 772 | 6420 | 85.4 | 716
Cn1cc(-c2cc3c(N4CC5CCC(C4)N5C(=O)[C@@H]4CC4(F)F)ncnn3c2)cn1 [Example 83, ((S)-2,2-difluorocyclopropyl)(3-(6-(1-methyl-1H-pyrazol-4-yl)pyrrolo[2,1-f][1,2,4]triazin-4-yl)-3,8-diazabicyclo[3.2.1]octan-8-yl)methanone] | 5730 | 1640 | 333 | 652
O=C([C@@H]1C[C@H]1F)N1C2CCC1CN(c1ncnn3cc(-c4ccnnc4)cc13)C2 [Example 90, ((1S,2R)-2-fluorocyclopropyl)(3-(6-(pyridazin-4-yl)pyrrolo[2,1-f][1,2,4]triazin-4-yl)-3,8-diazabicyclo[3.2.1]octan-8-yl)methanone] | 3060 | 10000 | 124 | 1120
CN(C)c1cc(-c2cc3c(N4CC5CCC(C4)N5C(=O)[C@@H]4C[C@H]4F)ccnn3c2)ccn1 [Example 128, (3-(6-(2-(dimethylamino)pyridin-4-yl)pyrrolo[1,2-b]pyridazin-4-yl)-3,8-diazabicyclo[3.2.1]octan-8-yl)((1S,2R)-2-fluorocyclopropyl)methanone] | 68 | 844 | 2.9 | 29
Cn1cc(-c2cc3c(N4CC5CCC(C4)N5C(=O)C4(F)CC4)ccnc3[nH]2)cn1 [Example 240, (1-fluorocyclopropyl)(3-(2-(1-methyl-1H-pyrazol-4-yl)-1H-pyrrolo[2,3-b]pyridin-4-yl)-3,8-diazabicyclo[3.2.1]octan-8-yl)methanone] | 42 | 35 | 4.4 | 44
Cn1cc(-c2cc3c(N4CC5CCC(C4)N5S(=O)(=O)[C@H]4CC4(F)F)ccnn3c2)cn1 [Example 197, 4-(8-(((S)-2,2-difluorocyclopropyl)sulfonyl)-3,8-diazabicyclo[3.2.1]octan-3-yl)-6-(1-methyl-1H-pyrazol-4-yl)pyrrolo[1,2-b]pyridazine] | 99 | 701 | 16.7 | 322
O=C(C1CC1)N1C2CCC1CN(c1ncnn3cc(-c4cnn(C5COC5)c4)cc13)C2 [Example 151] | 4100 | 3380 | 239 | 3300

From patent publication US20240360157A1, “TYK2 INHIBITORS” (BIOGEN MA INC., priority 2021, published 2024)
